These results are taken from PubChem BioAssay (NCI).

Structures are written as SMILES. Where “and” joins values, the source holds several entries; their conditions need not be identical. Equal values may be shown once.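 Grown in 96-well plates, cells were treated for 48 hours with each compound at five concentrations. Insufficient inhibition: endpoint recorded as highest concentration tested. GI50 is the concentration that inhibits growth by half. TGI: concentration producing complete growth inhibition.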

What all share (test): NCI anticancer screen, dose series, 48 h
Test [1] relates to SF-539 CNS.
Test [2] concerns RXF 393 renal.
Test [3] deals with SW-620 colon.
Test [4] relates to SK-MEL-5 melanoma.
The subject of test [5] is NCI-H23 lung.
For test [6], the system named is U251 CNS.
Test [7] relates to SK-MEL-2 melanoma.
The subject of test [8] is M19-MEL melanoma.
Test [9] deals with HCT-15 colon.
The subject of test [10] is MALME-3M melanoma.
Test [11] deals with OVCAR-8 ovarian.
Test [12] has as its system HOP-92 NSCLC.
Test [13] has as its system A498 renal.
Test [14] deals with SK-OV-3 ovarian.
In test [15] the test system is SNB-19 CNS.
Test [16] relates to HT29 colon.
Test [17] relates to NCI-H460 lung.
The subject of test [18] is ACHN renal.

Take `OCC#CCNCl`: the TGI in test [1], in test [2], in [3], in test [4], in [5] and in test [6] was greater than 100 µM throughout. For the same molecule, the TGI in test [7], in test [8], in [9], in test [10], in [11] and in test [12] was greater than 100 µM throughout. The TGI in test [13], in test [14], in test [15], in test [16] and in test [17] was greater than 100 µM throughout.

With `O=[N+]([O-])C(=C/c1ccccc1)/C(=C\c1ccccc1)[N+](=O)[O-]`, the TGI turned out to be 12.7 µM in test [1]; 33.5 µM in test [2]; 30.6 µM in [18]; 28.6 µM in test [3]; 30.2 µM in test [4]; 31.1 µM in test [5]. The TGI in test [6] was 29 µM; in test [7], 49.1 µM; in test [11], 47.1 µM; in test [12] it was 39.8 µM; in [14], 48.2 µM; in [15], 33.4 µM. For the same molecule, the TGI in test [16] came to 31.4 µM; in [17], 33 µM.

With `CCNC(=O)C(C)C1CCC2(C)C=CC(=O)C(C)=C2C1O` (stereo not given), the TGI in test [1], in test [2], in [3], in test [4], in test [5] and in test [6] was greater than 100 µM in each case. Also, the TGI in [7], in test [8], in test [9], in test [11], in [12] and in [13] was greater than 100 µM throughout. Also, the TGI in [14], in test [15], in test [16] and in [17] was greater than 100 µM throughout.

Take `CN(C)CCNc1ccc2ncn3c4ccccc4c(=O)c1c23`: the TGI was 16.9 µM in test [1]; 10.5 µM in test [18]; 12.9 µM in [3]; 11.5 µM in [4]; 14.5 µM in test [5]; 15.8 µM in test [6]. The TGI in test [7] came to 10.1 µM; in test [8] it was 12.6 µM; in [9], 13.9 µM; in test [10], 10.2 µM; in [11], 10.7 µM; in test [12], 9.51 µM. Moreover, the TGI in test [13] was found to be 21.1 µM; in test [14], 16.2 µM; in test [15] it was 47.5 µM; in test [16] it was 10.6 µM; in test [17], 6.86 µM.

Regarding `O=C1OC(c2ccccc2)=NC1c1ccccc1` (stereo not given), the TGI in [1], in [2], in test [18], in test [3], in test [4] and in test [5] was greater than 100 µM in each case. The TGI in test [6], in test [9], in test [11], in test [12], in test [13] and in test [14] was greater than 100 µM each time. For the same molecule, the TGI in test [15], in [16] and in test [17] was greater than 100 µM each time.

For `COc1ccccc1/C=C(/C)[N+](=O)[O-]`, the TGI in test [1] is 6.6 µM and 3.71 µM; in [2], 4.74 µM; in test [18], 4.68 µM and 5.46 µM; in test [3] it was 43.1 µM; in [4], 5.1 µM and 3.59 µM; in [5], 5.81 µM. Besides, the TGI in test [6] is 4.19 µM and 3.43 µM; in test [7], 5.01 µM and 4.64 µM; in test [9] it was 7.43 µM and 5.11 µM; in [10], 5.72 µM and 3.97 µM; in [11], 4 µM and 4.24 µM; in test [12] it was 5.72 µM. For the same molecule, the TGI in test [13] was 21.5 µM and 18.4 µM; in test [15], 15.1 µM and 5.77 µM; in [16], 12.6 µM and 9.89 µM. For the same molecule, the GI50 is 1.74 µM in test [2]; 4.07 µM and 1.94 µM in [17].

As to `CC(C)=CCCC(C)(OC1OC(CO)C(O)C(O)C1O)C1CCC2(C)C1C(O)CC1C3(C)CCC(O)C(C)(C)C3C(OC3OC(CO)C(O)C(O)C3OC3OC(C)C(O)C(O)C3O)CC12C` (stereo not given) (tested in a mixture with another compound), the TGI in test [1], in [18], in [3], in test [4], in test [5] and in test [6] was greater than 75 µM each time. In addition, the TGI in test [7], in [9], in [11], in test [12], in [13] and in test [14] was greater than 75 µM in each case. Besides, the TGI in test [15] was greater than 75 µM; in test [16] it was greater than 75 µM; in test [17], greater than 7.5 µM.

On to `O=C(NN1C(=O)C(Cl)C1c1ccccc1O)c1ccccc1O` (stereo not given), for which the TGI in test [1] was 48.7 µM; in [2] it was greater than 100 µM; in test [3] it was greater than 100 µM; in test [4], greater than 100 µM; in test [5] it was greater than 100 µM; in test [6], greater than 100 µM. Also, the TGI in test [7] was greater than 100 µM; in test [10], greater than 100 µM; in test [11], greater than 100 µM; in [12], greater than 100 µM; in test [14], greater than 100 µM; in test [15] it was 57.9 µM. Besides, the TGI in [16] and in test [17] was greater than 100 µM throughout.

In the case of `CCOC(=O)Cc1cc(OC)c(OC)cc1/C(Cl)=C(\CO)c1ccc(OC)c(OC)c1`, the TGI in [2], in test [18], in test [3], in test [4], in test [5] and in test [6] was greater than 100 µM throughout. In addition, the TGI in test [8] is greater than 100 µM; in test [9], greater than 100 µM; in [10] it was greater than 100 µM; in test [11] it was greater than 100 µM; in [12] it was 98.1 µM; in test [14], greater than 100 µM. For the same molecule, the TGI in test [15], in [16] and in test [17] was greater than 100 µM each time.
